{"source": "patent US20160024204A1", "about": "“METHODS FOR PRODUCING ANTIBODIES” (BRISTOL-MYERS SQUIBB COMPANY, priority 2013, published 2016)", "test_system": "P. pastoris", "assay": "Effects of hydroxyurea on cell growth and antibody productivity in P. pastoris fermentation (Run 01MAY11)", "conditions": "2.6-2.8 g/L hydroxyurea; for WB Titer (anti-IL-6 antibody): age 90 h, lots T5, T6 and T10"}
{"smiles": "NC(=O)NO", "note": "[Hydroxyurea]", "values": [{"measurement": "WCW reached and maintained by hydroxyurea treatment lots (control lots ~400 g/Kg)", "setting": "after peak cell density at 30-40 hours, FIG. 8", "value": "~450", "unit": "g/kg"}, {"measurement": "WB Titer (anti-IL-6 antibody)", "value": "75.0 ± 2.7", "unit": "Normalized"}, {"measurement": "WB Titer (anti-IL-6 antibody)", "setting": "listed as hydroxyurea", "value": 75, "unit": "Normalized"}]}
